The values below come from article doi:10.1101/2025.09.10.675409, “ACAD10 encodes two orphan enzymes in the ether lipid biosynthetic and salvage pathways” (bioRxiv, 2026).

Assay [1] has as its target T1, C. elegans ACAD10 KD (ACAD10 kinase domain) (Caenorhabditis elegans, UniProt O01590).
T1 construct: gene acds-10; kinase domain, residues 209-568, purified
T1 sequence (O01590 209-568): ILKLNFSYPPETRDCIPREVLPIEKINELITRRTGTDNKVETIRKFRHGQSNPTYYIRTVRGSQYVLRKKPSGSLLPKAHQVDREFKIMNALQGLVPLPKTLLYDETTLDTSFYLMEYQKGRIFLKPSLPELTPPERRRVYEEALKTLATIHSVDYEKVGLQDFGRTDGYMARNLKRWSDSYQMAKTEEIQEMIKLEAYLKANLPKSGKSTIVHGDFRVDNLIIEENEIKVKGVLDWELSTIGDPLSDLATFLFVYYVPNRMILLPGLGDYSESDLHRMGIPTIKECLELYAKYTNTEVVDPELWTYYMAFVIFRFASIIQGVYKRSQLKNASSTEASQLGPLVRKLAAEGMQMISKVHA
The assay is described as follows: […] incorporation, TLC, phosphorimaging. The conditions noted are these: [γ-32P]ATP. The assay is classed as biochemical.

The target in assay [2] is T2, C. elegans ACAD10 phosphatase domain (Caenorhabditis elegans, UniProt O01590).
T2 construct: gene acds-10; phosphatase domain, residues 1-212
T2 sequence (O01590 1-212): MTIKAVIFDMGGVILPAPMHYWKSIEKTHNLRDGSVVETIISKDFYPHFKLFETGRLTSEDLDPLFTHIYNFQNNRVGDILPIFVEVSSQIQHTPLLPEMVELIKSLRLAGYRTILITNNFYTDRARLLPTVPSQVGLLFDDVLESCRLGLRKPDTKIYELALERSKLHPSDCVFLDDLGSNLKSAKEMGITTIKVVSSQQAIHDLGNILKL
The assay is described as follows: dephosphorylation of […]-labelled lipid, TLC, phosphorimaging. The assay is classed as biochemical. The following applies: labelled compound; Mg2+.

In assay [3] the target is T3, C. thermarum ACAD10 kinase domain (Caldalkalibacillus thermarum, UniProt F5L6J0).
T3 construct: gene CathTA2_1440; purified prokaryotic ACAD10 kinase domain homolog; HYDxK motif with D214/K216, N219, DWE motif D234-E236, R61, E78
The assay is described as follows: X-ray crystallography, […] Å. The assay is classed as binding. The following applies: nucleotide groove between N- and C-lobe; Mg2+ and acetyl-CoA in crystallization, neither seen.

Assay [4] deals with T3, C. thermarum ACAD10 kinase domain. The assay is described as follows: […] incorporation, TLC, phosphorimaging. The assay is classed as biochemical. The conditions noted are these: activator; binding site only modelled, no density in crystal.
Assay [5] has as its target T1, C. elegans ACAD10 KD (ACAD10 kinase domain). The assay is described as follows: […] incorporation into lipid, TLC. The assay is classed as biochemical. The conditions noted are these: activator; purified domain with mouse liver mitochondrial extract as lipid source; Mg2+.

For the molecule `CCCCCCCCCCCCCCCCOCC(O)CO` (racemic) [chimyl alcohol, 1-O-hexadecyl-rac-glycerol], the “32P incorporation, TLC, phosphorimaging” value in assay [1] is reported as “C. elegans ACAD10 phosphorylated chimyl alcohol (1-O-hexadecyl-rac-glycerol) (Figure 1G)”.

On to `CCCCCCCCCCCCCCCCOC[C@H](COP(=O)(O)O)OC(C)=O` [1-alkyl (16:0), 2-acetyl (2:0), 1-O-alkyl-2-acetyl-sn-glycero-3-phosphate], for which, in assay [2], the “dephosphorylation of 32P-labelled lipid, TLC, phosphorimaging” value is reported as “phosphatase domain selectively dephosphorylated 1-O-alkyl-2-acetyl-sn-glycero-3-phosphate but not 1-O-alkyl-2-acyl-sn-glycero-3-phosphate”. As for `Nc1ncnc2c1ncn2[C@@H]1O[C@H](COP(=O)(O)OP(=O)(O)NP(=O)(O)O)[C@@H](O)[C@H]1O` [AMP-PNP], in assay [3], the “X-ray crystallography, 2.15 Å” value is “crystal structure of the Caldalkalibacillus thermarum ACAD10 kinase domain bound to the ATP analog AMP-PNP”. Regarding `CC(=O)SCCNC(=O)CCNC(=O)[C@H](O)C(C)(C)COP(=O)(O)OP(=O)(O)OC[C@H]1O[C@@H](n2cnc3c(N)ncnc32)[C@H](O)[C@@H]1OP(=O)(O)O` [acetyl-CoA], in assay [4], the “32P incorporation, TLC, phosphorimaging” value is “acetyl-CoA stimulates C. thermarum ACAD10 kinase domain”. Further, in assay [5], the “32P incorporation into lipid, TLC” value is “In addition to acetyl-CoA, CoA alone or other CoA thioesters also activated”.
